The structures appear in SMILES notation. Entries after “also recorded” stand apart in the source; their conditions may differ. Like-named read-outs stand apart in the source and are kept apart here.

Data set [1] has as its system HCoV-229E. Nature of the data set: Viral replication inhibition assay: HCoV-229E in MRC5 cells, PFU assay. In kind it is cell-based, Human Coronavirus 229E.
The next data set relates to Vero E6 cells. Description: Cytotoxicity in Vero E6 cells (WST-1 assay among others). In kind it is cell-based.
Data set [2] concerns HCoV-229E. Also on record: method as in earlier work. The conditions noted are these: Huh7 cells; cited from earlier work.
Data set [3] in a line: Cytotoxicity in MRC5 cells, MTT assay. The note with it: human.
The subject of the next data set is MRC5 cells. Nature of the data set: Cytotoxicity in MRC5 cells, MTT assay. The note with it: drugs tested against HCoV-229E.
In the next data set the test system is MERS-CoV. The note with it: in vitro; cited from earlier work.
Another data set is described as follows: in vitro. The note with it: human.
The nature of data set [4]: Cytotoxicity in Vero E6 cells (WST-1 assay among others). The conditions noted are these: African green monkey; Vero E6 cells, 48 h. In kind it is cell-based.
For data set [5], the system named is SARS-CoV-2. The conditions noted are these: cited from earlier work.
The test system of data set [6] is SARS-CoV-2. The conditions noted are these: especially in primary human bronchial epithelium cells; cited from earlier work.
The next data set concerns lung cancer. The conditions noted are these: nasal administration; cited from earlier work.
The conditions of data set [7]: single 500 mg oral dose; cited from earlier work.
For data set [8] the following is noted: in vivo; cited from earlier work.
For data set [9], the system named is SARS-CoV-2. Nature of the data set: SARS-CoV-2 replication in Vero E6 cells, qRT-PCR of envelop (E) gene.
In data set [10] the test system is SARS-CoV-2. The note with it: SARS-CoV-2 infection; cited from earlier work.
Data set [11] concerns HCoV-229E, SARS-CoV and MERS-CoV. The note with it: cited from earlier work.
Where [12] appears, read: Human coronavirus 229E, MRC5, 48 h, HCoV-229E in MRC5 cells, high titer MOI = 1, PFU assay after 48 h, read-out: EC50.
Where [13] appears, read: SARS-CoV-2 in Vero E6 cells, qRT-PCR after 48 h.

Take `CCN(CC)CCCC(C)Nc1ccnc2cc(Cl)ccc12` (stereo not shown) [Chloroquine, chloroquine diphosphate]: the “reduction of the viral titer” value in the data set with HCoV-229E [1] (HCoV-229E) worked out at 60%. In addition, the figures for the EC50 in the data set with HCoV-229E [1] (setting [12]) and with HCoV-229E [2] were 0.005 mM and 3.3 µM, respectively. The “HCoV-229E replication, low viral load (in words)” value in the data set with HCoV-229E [1] (MOI = 0.01, Figure 2) is listed as “inhibits HCoV-229E replication”. In the data set with HCoV-229E [1] (combinations of lopinavir/ritonavir, chloroquine, resveratrol, MOI 0.01, Figure 2B), the “effect of combinatory treatment on HCoV-229E (in words)” value is on record as “did not observe a synergistic effect”. Besides, the “effect when cells were treated before or after the infection (in words)” value in the data set with HCoV-229E [1] (pre-treated 3 h or post-treated 4 h, MOI 1, Figure 3) is on record as “did not observe a significant difference”. Besides, in the data set with Vero E6 cells (48 h), the “cytotoxicity on Vero E6 cells (in words)” value is “toxic; also recorded: high cytotoxicity”.
In the case of `CCN(CC)C(=S)SSC(=S)N(CC)CC` [Disulfiram, disulfiram], the “SI (selectivity index, CC50/EC50)” value in the data set on HCoV-229E [1] (HCoV-229E, MRC5 cells) was 60.56. The EC50 with HCoV-229E [1] (setting [12]) is 0.000139 mM. In [3] (MRC5 cells), this compound yielded a CC50 at 48 h of 8.4 µM. In addition, in the data set on MRC5 cells, the “cytotoxicity (in words)” value is “highly cytotoxic”.
On to `CN(C)C(=O)C(CCN1CCC(O)(c2ccc(Cl)cc2)CC1)(c1ccccc1)c1ccccc1` [Loperamide, loperamide], for which the CC50 at 48 h in data set [3] was found to be 10.1 µM. The “cytotoxicity (in words)” value with MRC5 cells is reported as “highly cytotoxic”.
`CO[C@H]1C[C@@H]2CC[C@@H](C)[C@@](O)(O2)C(=O)C(=O)N2CCCC[C@H]2C(=O)O[C@H]([C@H](C)C[C@@H]2CC[C@@H](O)[C@H](OC)C2)CC(=O)[C@H](C)/C=C(\C)[C@@H](O)[C@@H](OC)C(=O)[C@H](C)C[C@H](C)/C=C/C=C/C=C/1C` [Rapamycin, rapamycin] displayed a concentration giving a half-maximal response (EC50) with HCoV-229E [1] (Human coronavirus 229E, MRC5, 48 h) of 0.00228 mM. The “reduction of MERS-CoV infection” value with MERS-CoV is “over 60%”. The compound also registered a CC50 at 48 h in “in vitro” of 2.5 µM. The “cytotoxicity (in words)” value in the data set on MRC5 cells is given as “highly cytotoxic”.
`Oc1ccc(/C=C/c2cc(O)cc(O)c2)cc1` [Resveratrol, resveratrol]: the “reduction of the viral titer” value with HCoV-229E [1] (HCoV-229E) is recorded as 80%. The compound further gave a CC50 at 48 h in data set [4] of 48.2 µM. Further, the non-cytotoxic doses entry in the data set on Vero E6 cells (in vitro, Vero E6) is reported as “up to 25 µM”. Also, in the data set with SARS-CoV-2 [5], the concentration giving a half-maximal response (EC50) was 4.48 µM. In addition, the “replication of SARS-CoV-2 (in words)” value in the data set on SARS-CoV-2 [6] is “inhibited the replication”. Moreover, in the data set with lung cancer, the “reduction of tumor multiplicity” value is 27% and the “reduction of tumor volume” value was 45%. Also, in data set [7], the Tmax was 1.3 h. Further, the “bioavailability (in words)” value in data set [8] is recorded as “poor bioavailability”. Also, the “inhibition of SARS-CoV-2 replication” value in the data set with SARS-CoV-2 [9] (25 µM, Vero E6 cells) is given as 3 logs. In the data set with SARS-CoV-2 [9] (setting [13]), the half-maximal effective concentration (EC50) was determined as 10.7 µM and the 90% effect concentration (EC90) amounted to 11.4 µM.
`CCCC(CCC)C(=O)O` [VPA, valproic acid] registered a concentration giving a half-maximal response (EC50) in the data set with HCoV-229E [1] (Human coronavirus 229E, MRC5, 48 h, HCoV-229E in MRC5 cells, PFU assay after 48 h, value in mM) of 1.34 mM. For the same compound, the CC50 at 48 h in data set [3] (MRC5 cells) is 4000 µM. Also, the “cytotoxicity (in words)” value in the data set with MRC5 cells was “highly cytotoxic”.
Turning to `CCN(CCO)CCCC(C)Nc1ccnc2cc(Cl)ccc12` (stereo not shown) [hydroxychloroquine], in the data set on SARS-CoV-2 [10], the EC90 was 5.47 µM.
With `Cc1cccc(C)c1OCC(=O)N[C@@H](Cc1ccccc1)[C@@H](O)C[C@H](Cc1ccccc1)NC(=O)[C@H](C(C)C)N1CCCNC1=O` [lopinavir], the EC50 in the data set on HCoV-229E [1] (HCoV-229E in MRC5 cells, high titer MOI = 1, PFU assay after 48 h, read-out: EC50) is 0.0088 mM; in the data set on HCoV-229E [1] (Human coronavirus 229E, MRC5, 48 h, HCoV-229E in MRC5 cells, high titer MOI = 1, PFU assay after 48 h) it was 0.00881 mM.
In the case of `COc1cc(/C=C/c2ccc(O)cc2)cc(OC)c1` [pterostilbene], the “replication of SARS-CoV-2 (in words)” value in the data set on SARS-CoV-2 [6] is reported as “inhibited the replication”.
On to `CC(C)c1nc(CN(C)C(=O)N[C@H](C(=O)N[C@@H](Cc2ccccc2)C[C@H](O)[C@H](Cc2ccccc2)NC(=O)OCc2cncs2)C(C)C)cs1` [ritonavir], for which the “anti-CoV activity (in words)” value in [11] is on record as “no selective anti-CoV activity”.

The values above are taken from publication PMC7926471 (Viruses, 2021).
